Results on 15 molecules are retold here after PubChem BioAssay (NCI).

Where “and” joins values, the source holds several entries; their conditions need not be identical. Equal entries are not always repeated.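 Compound exposure: 48 hours, 5 concentrations, 96-well plates. Here, GI50 denotes the concentration required for 50% inhibition of growth. Definition used: TGI = concentration required for complete inhibition of growth.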

Some test systems named below: HCT-116 colon; HL-60(TB) leukemia; HOP-92 NSCLC; KM12 colon; OVCAR-3 ovarian; SK-MEL-5 melanoma; SN12C renal; SW-620 colon; U251 CNS; UO-31 renal.
Experiment in all cases: growth of human tumour cells (NCI), 48 h

In the case of `COc1cc([C@@H]2c3cc4c(c(O)c3C[C@H]3COC(=O)[C@@H]32)OCO4)cc(OC)c1OC`, the GI50 with HCT-116 colon was 0.0589 µM; in the test with HL-60(TB) leukemia it was 0.582 µM; with HOP-92 NSCLC, 8.17 µM; with KM12 colon it was 0.104 µM; with OVCAR-3 ovarian it was 0.089 µM; in the test with SK-MEL-5 melanoma, 0.0407 µM. For the same molecule, the GI50 with SN12C renal was 0.581 µM; in the test on SW-620 colon, 0.123 µM; in the test on U251 CNS, 0.183 µM; in the test on UO-31 renal it was 0.466 µM. In addition, the TGI in the test on U251 CNS was > 100 µM; in the test on UO-31 renal, 56.2 µM and 120 µM and > 100 µM.

Turning to `Cc1nc2c(c(=O)[nH]1)S/C(=C(/C#N)c1nc3ccccc3[nH]1)N2c1ccccc1`, the TGI in the test on HCT-116 colon, with HL-60(TB) leukemia, in the test with HOP-92 NSCLC, in the test with KM12 colon, with OVCAR-3 ovarian and in the test with SK-MEL-5 melanoma was > 100 µM each time. In addition, the TGI in the test on SN12C renal, in the test on SW-620 colon, in the test on U251 CNS and with UO-31 renal was > 100 µM throughout.

`COc1ccc2c(c1O)-c1cc(O)cc3c1[C@@H](C2)N(C)CC3`: the TGI in the test with HCT-116 colon stood at 49.9 µM; in the test with HL-60(TB) leukemia it was 191 µM; with HOP-92 NSCLC, 73.6 µM; with KM12 colon it was 114 µM; with OVCAR-3 ovarian it was 84.2 µM; in the test with SK-MEL-5 melanoma it was 122 µM. Moreover, the TGI with SN12C renal worked out at 183 µM; in the test on SW-620 colon, 145 µM; in the test with U251 CNS, 250 µM; in the test with UO-31 renal, 103 µM.

Take `O=C1C(Cl)N(c2cccc(Cl)c2)C1c1c[nH]c2ccccc12` (stereo not drawn): the TGI with HCT-116 colon, in the test with HL-60(TB) leukemia, with HOP-92 NSCLC, in the test with KM12 colon, with OVCAR-3 ovarian and in the test on SK-MEL-5 melanoma was > 100 µM each time. For the same molecule, the TGI in the test with SN12C renal, with SW-620 colon, in the test with U251 CNS and in the test with UO-31 renal was > 100 µM in each case.

For `Nc1ccccc1Nc1ccccc1C(=O)[O-].Nc1ccccc1Nc1ccccc1C(=O)[O-].[Zn+2]`, the TGI was > 100 µM in the test with HCT-116 colon; > 100 µM with KM12 colon; 61 µM in the test on OVCAR-3 ovarian; > 100 µM with SK-MEL-5 melanoma; > 100 µM in the test with SN12C renal; > 100 µM in the test on SW-620 colon. In addition, the TGI in the test on U251 CNS and with UO-31 renal was > 100 µM in each case.

On to `Cc1cc(O)c2c(c1O)C(=O)c1cccc(O)c1C2=O`, for which the TGI with HCT-116 colon, with HL-60(TB) leukemia, with HOP-92 NSCLC, in the test on KM12 colon, in the test with OVCAR-3 ovarian and in the test with SK-MEL-5 melanoma was > 100 µM throughout. The TGI in the test on SN12C renal, in the test on SW-620 colon, with U251 CNS and in the test on UO-31 renal was > 100 µM each time.

On to `C(/C=C/c1ccccc1)=Nc1ccc2c(c1)Cc1ccccc1-2`, for which the TGI in the test on HCT-116 colon, with HOP-92 NSCLC, in the test on KM12 colon, in the test on OVCAR-3 ovarian, with SK-MEL-5 melanoma and in the test with SN12C renal was > 100 µM each time. Further, the TGI in the test on SW-620 colon was > 100 µM; with U251 CNS, 44.4 µM; in the test on UO-31 renal, > 100 µM.

Consider `COc1cc(C2S/C(=C/c3ccccc3)C(=O)N2c2ccc(NC(C)=O)cc2)cc(OC)c1OC` (stereo not drawn), for which the TGI stood at 26.1 µM with HCT-116 colon; 83.6 µM in the test with HOP-92 NSCLC; 31 µM in the test on KM12 colon; 34.9 µM with SK-MEL-5 melanoma; 60.3 µM in the test on SN12C renal; 38.5 µM in the test on U251 CNS. In addition, the TGI with UO-31 renal was > 100 µM.

As to `NC(CSCc1ccc(I)cc1)C(=O)O` (stereo not drawn), the TGI with HCT-116 colon, in the test on HL-60(TB) leukemia, in the test with HOP-92 NSCLC, in the test on KM12 colon, in the test on OVCAR-3 ovarian and in the test with SK-MEL-5 melanoma was > 100 µM each time. Besides, the TGI with SN12C renal, in the test with SW-620 colon, in the test on U251 CNS and in the test with UO-31 renal was > 100 µM throughout.

Turning to `CC[C@@H]1ON(C)[C@H]2CN(C)C(=O)[C@@H]12`, the TGI in the test on HCT-116 colon, with HL-60(TB) leukemia, in the test with HOP-92 NSCLC, with OVCAR-3 ovarian, with SK-MEL-5 melanoma and in the test on SN12C renal was > 100 µM in each case. The TGI in the test on SW-620 colon, in the test on U251 CNS and with UO-31 renal was > 100 µM each time.

`Cc1c(C)c(C)c(CC2(C)CSC2)c(CC2(C)CSC2)c1C`: the TGI with HCT-116 colon, in the test on HL-60(TB) leukemia, in the test with HOP-92 NSCLC, in the test with OVCAR-3 ovarian, with SK-MEL-5 melanoma and in the test with SN12C renal was > 100 µM each time. In addition, the TGI in the test on SW-620 colon, with U251 CNS and with UO-31 renal was > 100 µM in each case.

Consider `COc1ccc(-c2csc(=Nc3ccccc3)n2CCCN(C)C)cc1`, for which the TGI with HL-60(TB) leukemia was > 100 µM; in the test with HOP-92 NSCLC, > 100 µM; in the test with KM12 colon, 29.5 µM; in the test on OVCAR-3 ovarian it was 37.5 µM; in the test with SN12C renal, > 100 µM; in the test on U251 CNS, > 100 µM. This molecule also came in with a TGI in the test with UO-31 renal of 44.9 µM.

With `NC(=S)N/N=C/c1nccc2ccccc12`, the TGI was > 100 µM in the test on HCT-116 colon; 4.23 µM with HL-60(TB) leukemia; > 100 µM with HOP-92 NSCLC; > 100 µM with KM12 colon; > 100 µM in the test with SK-MEL-5 melanoma; > 100 µM in the test on SN12C renal. The TGI in the test on SW-620 colon was > 100 µM; in the test on U251 CNS it was > 100 µM; with UO-31 renal it was 3.42 µM.

As to `CCN1CCCC(C#N)(c2ccccc2)CC1` (stereo not drawn), the TGI in the test with HCT-116 colon, in the test on HL-60(TB) leukemia, in the test with HOP-92 NSCLC, with KM12 colon, with SK-MEL-5 melanoma and in the test with SW-620 colon was > 100 µM in each case. Moreover, the TGI in the test with U251 CNS and in the test on UO-31 renal was > 100 µM each time.

On to `CN(C)CCCC1c2ccccc2Oc2ccc(C(F)(F)F)cc21` (stereo not drawn), for which the TGI with HCT-116 colon was 25.6 µM; in the test with HL-60(TB) leukemia, 28.1 µM; in the test with HOP-92 NSCLC, 25.2 µM; in the test with KM12 colon it was 28.4 µM; in the test with OVCAR-3 ovarian it was 29.2 µM; in the test with SK-MEL-5 melanoma, 21 µM. The TGI is 28.2 µM with SN12C renal, 33.7 µM in the test with SW-620 colon, 23.9 µM with U251 CNS and 6.49 µM with UO-31 renal.
